According to ChEMBL document CHEMBL1909550, “Designing 2-aminoimidazole alkaloids analogs with anti-biofilm activities: structure-activities relationships of polysubstituted triazoles” (Bioorg Med Chem Lett, 2011):

Tests used:
[1] = tested on: Pseudoalteromonas sp. D41; experiment: Antibiofilm activity against Pseudoalteromonas sp. D41 assessed as inhibition of bacterial adhesion after 15 hrs by fluorescence assay; type: functional; details: Pseudoalteromonas sp. D41, 15 h
Paracoccus sp. [2] = experiment: Antibiofilm activity against Paracoccus sp. 4M6 assessed as inhibition of bacterial adhesion after 15 hrs by fluorescence assay; type: functional; details: Paracoccus sp. (in: a-proteobacteria), 4M6, 15 h
Paracoccus sp. [3] = experiment: Antibiofilm activity against Paracoccus sp. 4M6 assessed as inhibition of bacterial adhesion at 200 uM after 15 hrs by fluorescence assay; type: functional; details: Paracoccus sp. (in: a-proteobacteria), 4M6, 15 h; values are per cent of control
[4] = tested on: Pseudoalteromonas sp. D41; experiment: Antibiofilm activity against Pseudoalteromonas sp. D41 assessed as inhibition of bacterial adhesion at 200 uM after 15 hrs by fluorescence assay relative to control; type: functional; details: Pseudoalteromonas sp. D41, 15 h
[5] = Antibacterial activity against Paracoccus sp. 4M6 assessed as growth inhibition at 100 uM up to 6 hrs by viability assay
[6] = Antibacterial activity against Pseudoalteromonas sp. D41 assessed as growth inhibition at 100 uM up to 6 hrs by viability assay; details: pseudoalteromonas sp. d41, 6 h
[7] = Antibacterial activity against Paracoccus sp. 4M6 assessed as growth inhibition at 10 uM up to 6 hrs by viability assay
[8] = Antibacterial activity against Pseudoalteromonas sp. D41 assessed as growth inhibition at 10 uM up to 6 hrs by viability assay; details: pseudoalteromonas sp. d41, 6 h
Pseudomonas aeruginosa [9] = experiment: Antibiofilm activity against Pseudomonas aeruginosa assessed as dispersion of bacterial biofilm; type: functional, organism-based
Pseudomonas aeruginosa [10] = experiment: Antibiofilm activity against Pseudomonas aeruginosa assessed as modulation of biofilm formation; type: functional, organism-based

| SMILES | EC50 [1] [µM] | EC50 (Paracoccus sp. [2]) [µM] | further results |
| --- | --- | --- | --- |
| COc1cccc(Cn2nncc2-c2ccccc2)c1 | > 200 | > 200 | response, % of control at 200 µM (Paracoccus sp. [3]): 142%; inhibition at 200 µM [4]: 50.5% |
| Oc1ccc(Cn2cc(-c3cc(O)cc(O)c3)nn2)cc1 | > 200 | 181 | – |
| Oc1ccc(Cn2nncc2-c2ccc(O)cc2)cc1 | > 200 | > 200 | – |
| COc1cccc(Cn2nncc2CCc2ccccc2)c1 | > 200 | > 200 | response, % of control at 200 µM (Paracoccus sp. [3]): 65.5%; inhibition at 200 µM [4]: 86.4% |
| COc1ccc(-c2cnnn2Cc2cccc(OC)c2)cc1 | 172 | > 200 | – |
| COc1cccc(Cn2nncc2Cc2ccccc2)c1 | > 200 | > 200 | response, % of control at 200 µM (Paracoccus sp. [3]): 149%; inhibition at 200 µM [4]: 58.5% |
| COc1ccc(Cn2cc(-c3cc(OC)cc(OC)c3)nn2)cc1 | 62 | 199 | growth inhibition (GI) [6]: Non-toxic |
| COc1ccc(Cn2nncc2CCc2ccccc2)cc1 | > 200 | > 200 | response, % of control at 200 µM (Paracoccus sp. [3]): 97.8%; inhibition at 200 µM [4]: 78.5% |
| CCn1cc(C(=O)O)c(=O)c2cc(F)c(N3CCNCC3)cc21 [NORFLOXACIN] | – | – | growth inhibition (GI) [7]: Toxic; growth inhibition (GI) [8]: Toxic |
| COc1ccc(Cc2[nH]c(=N)n(C)c2Cc2ccc(O)cc2)cc1 [NAAMINE A] | – | – | EC50 (Pseudomonas aeruginosa [9]): 436 µM; EC50 (Pseudomonas aeruginosa [10]): 436 µM |
| Oc1ccc(Cn2cc(-c3ccc(O)cc3)nn2)cc1 | > 200 | 131 | – |
| Oc1cccc(Cn2nncc2-c2cc(O)cc(O)c2)c1 | > 200 | > 200 | – |
| COc1ccc(Cn2cc(-c3ccc(OC)cc3)nn2)cc1 | > 200 | > 200 | – |
| COc1cccc(Cn2cc(-c3cc(OC)cc(OC)c3)nn2)c1 | 34.8 | > 200 | growth inhibition (GI) [6]: Non-toxic |

Continued, in another order:

| EC50 [1] [µM] | EC50 (Paracoccus sp. [2]) [µM] | SMILES | further results |
| --- | --- | --- | --- |
| > 200 | > 200 | COc1ccc(Cn2nncc2-c2ccc(OC)cc2)cc1 | – |
| > 200 | > 200 | COc1ccc(Cn2nncc2-c2ccccc2)cc1 | response, % of control at 200 µM (Paracoccus sp. [3]): 127%; inhibition at 200 µM [4]: 70.9% |
| > 200 | > 200 | Oc1ccc(-c2cnnn2Cc2cccc(O)c2)cc1 | – |
| 129 | 41.2 | Oc1ccc(-c2cn(Cc3cccc(O)c3)nn2)cc1 | growth inhibition (GI) [5]: Non-toxic |
| > 200 | > 200 | COc1ccc(-c2cn(Cc3cccc(OC)c3)nn2)cc1 | – |
| > 200 | 199 | COc1ccc(Cn2nncc2Cc2ccccc2)cc1 | inhibition at 200 µM [4]: 55.5% |
| > 200 | > 200 | Oc1cccc(Cn2cc(-c3cc(O)cc(O)c3)nn2)c1 | – |
| > 200 | > 200 | Oc1ccc(Cn2nncc2-c2cc(O)cc(O)c2)cc1 | – |
| 37.2 | 90.3 | COc1ccc(Cn2nncc2-c2cc(OC)cc(OC)c2)cc1 | growth inhibition (GI) [5]: Non-toxic; growth inhibition (GI) [6]: Non-toxic |
| 48.6 | > 200 | COc1cccc(Cn2nncc2-c2cc(OC)cc(OC)c2)c1 | growth inhibition (GI) [6]: Non-toxic |
